Assay: refractive index (Na D-line) (dimensionless); xn = mol fraction of the nth substance listed
Conditions: 101 kPa, Liquid, Standard Abbe refractometry

CCCCn1cc[n+](C)c1.[O-][Cl+3]([O-])([O-])[O-] [1-butyl-3-methylimidazolium perchlorate] + CCO
refractive index
Conditions | x2 = 0.1 | x2 = 0.165 | x2 = 0.291 | x2 = 0.401 | x2 = 0.479
283.15 K | 1.475 | 1.4725 | 1.468 | 1.4625 | 1.459
288.15 K | 1.4738 | 1.4715 | 1.4667 | 1.4612 | 1.4575
293.15 K | 1.4725 | 1.47 | 1.4655 | 1.4595 | 1.4563
298.15 K | 1.471 | 1.4687 | 1.464 | 1.458 | 1.455
303.15 K | 1.4697 | 1.4673 | 1.4627 | 1.4568 | 1.4535
308.15 K | 1.4685 | 1.466 | 1.4615 | 1.4555 | –
313.15 K | 1.467 | 1.4648 | 1.46 | 1.454 | –
318.15 K | 1.4655 | 1.4637 | 1.4587 | – | –
323.15 K | 1.4645 | 1.462 | 1.457 | – | –
328.15 K | 1.463 | 1.4608 | 1.456 | – | –
333.15 K | 1.4615 | 1.4595 | 1.4545 | – | –
338.15 K | 1.4603 | 1.458 | 1.4532 | – | –
343.15 K | 1.459 | 1.4565 | 1.4518 | – | –

CCCCCCCC[n+]1ccn(C)c1.F[B-](F)(F)F [1-methyl-3-octylimidazolium tetrafluoroborate] + CCO
refractive index
Conditions | x2 = 0.081 | x2 = 0.161 | x2 = 0.315 | x2 = 0.511 | x2 = 0.612 | x2 = 0.753
283.15 K | 1.4335 | 1.4315 | 1.43 | 1.4265 | 1.4225 | 1.4132
288.15 K | 1.4323 | 1.4305 | 1.4288 | 1.425 | 1.4212 | 1.4125
293.15 K | 1.431 | 1.4292 | 1.4273 | 1.4237 | 1.42 | 1.411
298.15 K | 1.4295 | 1.428 | 1.426 | 1.423 | 1.4185 | 1.4098
303.15 K | 1.4284 | 1.427 | 1.4245 | 1.4208 | 1.4172 | 1.4085
308.15 K | 1.4268 | 1.4255 | 1.423 | 1.4195 | 1.416 | 1.4072
313.15 K | 1.4255 | 1.424 | 1.4219 | 1.418 | 1.4143 | 1.407
318.15 K | 1.424 | 1.4225 | 1.4205 | 1.4168 | 1.413 | 1.4065
323.15 K | 1.4225 | 1.421 | 1.419 | 1.415 | 1.4115 | 1.4055
328.15 K | 1.4213 | 1.42 | 1.4178 | 1.4137 | 1.41 | 1.4045
333.15 K | 1.4205 | 1.4188 | 1.416 | 1.4125 | 1.4085 | 1.404
338.15 K | 1.419 | 1.4173 | 1.4145 | 1.4118 | 1.4078 | 1.4033
343.15 K | 1.4175 | 1.416 | 1.4132 | 1.411 | 1.4065 | 1.402

From the NIST ThermoML archive (doi:10.1021/je700521t)
